{
  "source": "paper PMC9916658",
  "about": "“Design and Synthesis of New Quinazolin-4-one Derivatives with Negative mGlu7 Receptor Modulation Activity and Antipsychotic-Like Properties” (International Journal of Molecular Sciences, 2023)",
  "key": {"[1]": {"biological_target": "T1, recombinant human mGlu7 receptor (Homo sapiens, UniProt Q14831)", "T1 construct": "expressed in transfected cells; host or cells: T-REx 293 (tetracycline-inducible)", "T1 sequence (Q14831 35-915)": "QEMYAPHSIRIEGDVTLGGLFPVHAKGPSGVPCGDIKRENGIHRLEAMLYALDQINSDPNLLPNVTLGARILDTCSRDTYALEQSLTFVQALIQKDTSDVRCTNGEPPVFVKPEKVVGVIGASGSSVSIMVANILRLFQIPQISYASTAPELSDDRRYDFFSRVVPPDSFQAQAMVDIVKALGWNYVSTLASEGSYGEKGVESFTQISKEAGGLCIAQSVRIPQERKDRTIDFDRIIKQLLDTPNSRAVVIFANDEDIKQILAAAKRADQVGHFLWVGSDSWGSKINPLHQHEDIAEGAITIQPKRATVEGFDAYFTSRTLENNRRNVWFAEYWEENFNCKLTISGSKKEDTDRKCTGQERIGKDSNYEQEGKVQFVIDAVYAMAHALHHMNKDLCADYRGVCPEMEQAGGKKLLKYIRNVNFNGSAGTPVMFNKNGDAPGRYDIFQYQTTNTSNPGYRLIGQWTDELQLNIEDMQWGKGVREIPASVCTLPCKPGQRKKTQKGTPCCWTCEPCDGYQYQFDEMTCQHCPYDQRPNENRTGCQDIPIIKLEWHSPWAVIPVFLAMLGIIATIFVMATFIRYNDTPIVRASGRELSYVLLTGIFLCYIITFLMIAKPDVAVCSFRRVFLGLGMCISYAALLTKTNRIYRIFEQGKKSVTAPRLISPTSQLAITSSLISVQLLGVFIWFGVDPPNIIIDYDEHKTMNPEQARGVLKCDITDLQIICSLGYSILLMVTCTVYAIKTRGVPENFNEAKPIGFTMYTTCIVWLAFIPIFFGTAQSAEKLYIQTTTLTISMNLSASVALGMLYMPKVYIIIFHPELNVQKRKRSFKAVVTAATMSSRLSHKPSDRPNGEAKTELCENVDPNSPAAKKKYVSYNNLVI", "assay": "NAM mGlu7 activity, forskolin-induced cAMP (HTRF) in T-REx 293 cell line", "format": "cell-based", "conditions": "forskolin-stimulated cAMP response, 5 µM LSP4-2022 (EC80), T-REx 293 human mGlu7; for Inhibition (%): 10 μM compound", "description": "The cell lines with the tetracycline-inducible expression of human metabotropic receptors 4, 7, and 8 were described in detail by Chruścicka et al. (mGlu4 receptor NM_000841, mGlu7 receptor NM_000844.2, and mGlu8 receptor NM_000845). Cells were grown under standard cell culture conditions (37 °C, 5% CO2) in DMEM supplemented with 10% tetracycline-free FBS. The expression was induced through the addition of tetracycline to the culture medium at 0.75 μg/mL.\nThe determination of the intracellular cAMP through homogeneous time-resolved fluorescence (HTRF) was described in detail previously. Briefly, 48 h before the experiments, the expression of the receptor was induced through the addition of tetracycline to the culture medium; the next day, FBS and L-Glu were removed from the medium. Just before the cAMP measurement, the cells were detached and centrifuged. Then, the cell suspension in Hanks-HEPES (130 mM NaCl, 5.4 mM KCl, 1.8 mM CaCl2, 0.8 mM MgSO4, 0.9 mM NaH2PO4, 20 mM HEPES, and 3.25 mM glucose; pH 7.4) was incubated in the presence of 10 µM forskolin (mGlu7 receptor, 3 µM forskolin), the agonist LSP4-2022 or L-Glu (for mGlu4 and mGlu8), and a compound for 5 min. The intracellular concentration of cyclic AMP was measured by means of a cAMP Gi HTRF kit from Cisbio, according to the manufacturer’s instructions. After 1 h of incubation at room temperature, the fluorescence at 620 nm and 665 nm was read (Tecan Infinite M1000). The results were calculated as the 665 nm/620 nm ratio multiplied by 10^4. Each sample was prepared in triplicate. Data were analyzed using GraphPad Prism version 5.04 for Windows (GraphPad Software, San Diego, USA).\nThe activity of the compounds was examined in the T-REx 293-cell-line-expressing recombinant human mGlu7 receptor by detecting the level of cyclic AMP in the presence of 5 µM forskolin [7, 41]. […] The substances were incubated with 5 µM LSP4-2022 (EC80).\nFirstly, all compounds were screened at 10 μM using three cell lines expressing the mGlu4/7/8 receptor to evaluate selectivity. For the mGlu4 and mGlu8 receptors, glutamic acid was used as an agonist and had good potency. […] VU0155041 and AZ12216052 were used as reference compounds for the mGlu4 and mGlu8 receptors, respectively. The parameter described as “% of inhibition” was introduced to compare the bioactivity of the new compounds to the reference NAM at a 10 μM concentration in the presence of 5 μM LSP4-2022 (0%) and 3 μM forskolin (100%). […] For compounds that passed the screening procedure, the dose–response curve in the presence of LSP4-2022 in 5 μM was evaluated compared to reference NAM ADX71743. Only compounds ALX-063, ALX-065, and ALX-171 (Figure S3, Supplementary Materials) met our conditions regarding bioactivity. All of them were further investigated to determine the EC50 and receptor selectivity. […]\n2.1. NAM mGlu7 receptor activity on T-Rex 293 cell line\nThe activity of compounds was examined on T-REx 293 cell line expressing recombinant human mGlu7 receptor by detecting the level of cyclic AMP in the presence of 5 µM forskolin [14,15]. The cell line was […]\nincubated with 5 µM of LSP4-2022 (EC80)."}, "[2]": {"biological_target": "T1, recombinant human mGlu7 receptor", "assay": "NAM mGlu7 activity, forskolin-induced cAMP (HTRF) in T-REx 293 cell line", "format": "cell-based"}, "[3]": {"tested_on": "animal models of schizophrenia", "conditions": "mGlu7 PAM; cited from earlier work"}},
  "note": "Entries after “also recorded” stand apart in the source; their conditions may differ.",
  "data": [
    {"smiles": "COc1ccccc1-c1ccc2nc(-c3ccccc3Cl)n(C)c(=O)c2c1", "note": "[A9-4]", "values": [
      {"measurement": "Inhibition (%)", "setting": "[1]", "value": "Inactive"}
    ]},
    {"smiles": "COc1cccc(-c2ccc3nc(-c4ccccc4Cl)n(C)c(=O)c3c2)c1", "note": "[A9-5]", "values": [
      {"measurement": "Inhibition (%)", "setting": "[1]", "value": "Inactive"}
    ]},
    {"smiles": "COc1ccc(-c2ccc3nc(-c4ccccc4Cl)n(C)c(=O)c3c2)cc1", "note": "[A9-6]", "values": [
      {"measurement": "Inhibition (%)", "setting": "[1]", "value": "not observed; also recorded: Inactive"}
    ]},
    {"smiles": "COc1ccc(-c2ccc3nc(-c4ccccc4Cl)n(C)c(=O)c3c2)c(OC)c1", "note": "[A9-8]", "values": [
      {"measurement": "Inhibition (%)", "setting": "[1]", "value": "Inactive"}
    ]},
    {"smiles": "COc1ccc(-c2ccc3nc(-c4ccccc4Cl)n(C)c(=O)c3c2)cc1OC", "note": "[A9-9]", "values": [
      {"measurement": "Inhibition (%)", "setting": "[1]", "value": "Inactive"}
    ]},
    {"smiles": "COc1ccc(OC)c(-c2ccc3nc(-c4ccccc4Cl)n(C)c(=O)c3c2)c1", "note": "[A9-10]", "values": [
      {"measurement": "Inhibition (%)", "setting": "[1]", "value": "Inactive"}
    ]},
    {"smiles": "COc1cc(OC)cc(-c2ccc3nc(-c4ccccc4Cl)n(C)c(=O)c3c2)c1", "note": "[A9-11]", "values": [
      {"measurement": "Inhibition (%)", "setting": "[1]", "value": "Inactive"}
    ]},
    {"smiles": "COc1cccc(OC)c1-c1ccc2nc(-c3ccccc3Cl)n(C)c(=O)c2c1", "note": "[A9-12]", "values": [
      {"measurement": "Inhibition (%)", "setting": "[1]", "value": "Inactive"}
    ]},
    {"smiles": "Cn1c(-c2ccccc2)nc2ccc(-c3ccccc3)cc2c1=O", "note": "[ALX-063, 3-methyl-2,6-diphenylquinazolin-4(3H)-one]", "values": [
      {"measurement": "IC50", "setting": "[2]; T-REx 293 cells expressing human mGlu7, 5 µM LSP4-2022 (EC80), 5 µM forskolin", "value": 6.5, "unit": "µM"},
      {"measurement": "inhibition at 10 µM", "setting": "[1]; T-REx-293, 10 μM compound", "value": "42.5 ± 36.5", "unit": "%"}
    ]},
    {"smiles": "c1ccc(C(NCCNC(c2ccccc2)c2ccccc2)c2ccccc2)cc1", "note": "[AMN082]", "values": [
      {"measurement": "activity in animal models", "setting": "[3]", "value": "propsychotic activity"}
    ]},
    {"smiles": "N[C@@H](CCC(=O)O)C(=O)O", "note": "[L-Glu]", "values": [
      {"measurement": "agonist potency at mGlu7 receptor", "setting": "[2]; agonist compared with LSP4-2022", "value": "~ 1 mM"}
    ]}
  ]
}
